Measured values reported in patent US12459951B2, “Compounds that interact with RAS superfamily proteins for treatment of cancers, inflammatory diseases, rasopathies, and fibrotic disease” (SHY Therapeutics, LLC, priority 2022, dated 2025).
Where two headings read alike, the source gives them in different places.

Key:
Akt phosphorylation = assay: Akt Phosphorylation Assay (western blot), Panc-1; assay type: cell-based, human; settings: at 10 μM, * = activation
In short: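 Panc-1 (KRas G12D) cells were treated with compound at 10 μM final (0.3% DMSO) for 6 h at 37 °C, or with serial dilutions for IC50. Cells were either serum-starved overnight in 0.5% FBS and then stimulated with 1.5 ng/ml EGF for 15 min, or kept in 10% FBS without stimulation. Akt Ser473 phosphorylation in lysates was read by western blot.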

IL6 = assay: IL-6 Quantification Assay (ELISA), LPS-stimulated RAW 264.7; assay type: cell-based; set-up: inhibition: dose or concentration left out as unconfirmed; settings: Mus musculus, RAW264.7; read-out: IL-6: % inh.
[1] = system: MiaPaca-2 (expressing KRAS G12C mutant); assay: Proliferation Assay (Cell Viability Assay); assay type: cell-based; settings: Homo sapiens, MIA PaCa-2
In short: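 MiaPaca-2 cells (KRAS G12C) were grown in DMEM-high glucose with 10% FBS, seeded at 2000–5000 cells/well and cultured overnight. Compounds were added at 10 μM final, or as serial dilutions for IC50, in 0.3% DMSO/10% FBS for 2–4 days at 37 °C, 5% CO2. Viability was measured with CellTiter 96 Aqueous One and % inhibition calculated.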

[2] = read-out: Proliferation in MiaPaca-2: IC50
[3] = Proliferation assay, MiaPaca-2, read-out: MiaPaca-2 IC50 (nM) Pancreatic

IC50 [1, 2] [nM] | IC50 [1, 3] [nM] | SMILES | % inh of Akt phosphorylation in Panc-1 (Akt phosphorylation) | inhibition (IL6) [%]
510 to 1000 |  | COCCCS(=O)(=O)Nc1nc(-c2nccn2C)nn2cc(-c3ccccc3)c(-c3ccccc3)c12 [Compound 213, 3-Methoxy-N-(2-(1-methyl-1H-imidazol-2-yl)-5,6-diphenylpyrrolo[2,1-f][1,2,4]triazin-4-yl)propane-1-sulfonamide] | D* (85-100% activation) | 25 to 49
> 1000 |  | CO[C@H]1C[C@H](S(=O)(=O)Nc2nc(-c3nccn3C)nn3cc(-c4ccccc4)c(-c4ccccc4)c23)C1 [Compound 214, (1r,3r)-3-Methoxy-N-(2-(1-methyl-1H-imidazol-2-yl)-5,6-diphenylpyrrolo[2,1-f][1,2,4]triazin-4-yl)cyclobutane-1-sulfonamide] | A* (1-25% activation) | 1 to 24
> 1000 |  | CO[C@H]1C[C@H](Nc2nc(-c3nccn3C)nn3cc(-c4ccc(CN)cc4)c(-c4ccccc4)c23)C1.Cl [Compound 206, 6-(4-(Aminomethyl)phenyl)-N-((1r,3r)-3-methoxycyclobutyl)-2-(1-methyl-1H-imidazol-2-yl)-5-phenylpyrrolo[2,1-f][1,2,4]triazin-4-amine hydrochloride salt] | C (50-84% inhibition) | 75 to 100
> 1000 |  | CO[C@H]1CC[C@H](Nc2nc(-c3nccn3C)nn3cc(-c4ccncc4)c(-c4ccccc4)c23)C1 (racemic) [Compound 201, rac N-((1S,3S)-3-Methoxycyclopentyl)-2-(1-methyl-1H-imidazol-2-yl)-5-phenyl-6-(pyridin-4-yl)pyrrolo[2,1-f][1,2,4]triazin-4-amine] | B (26-49% inhibition) | 75 to 100
> 1000 |  | COCCNc1nc(-c2nccn2C)nn2cc(-c3ccncc3)c(-c3ccccc3)c12 [Compound 202, N-(2-Methoxyethyl)-2-(1-methyl-1H-imidazol-2-yl)-5-phenyl-6-(pyridin-4-yl)pyrrolo[2,1-f][1,2,4]triazin-4-amine] | B (26-49% inhibition) | 50 to 74
< 150 |  | Cc1cnc2c(c1)CCN2c1nc(-c2nccn2C)nn2cc(-c3ccn(C)n3)c(C)c12 [Compound 239, 5-Methyl-2-(1-methyl-1H-imidazol-2-yl)-6-(1-methyl-1H-pyrazol-3-yl)-4-(5-methyl-2,3-dihydro-1H-pyrrolo[2,3-b]pyridin-1-yl)pyrrolo[2,1-f][1,2,4]triazine] | D* (85-100% activation) | 50 to 74
< 150 |  | Cc1c(-c2ccn(C)n2)cn2nc(-c3nccn3C)nc(Nc3ccc(N4CCCC4)cn3)c12 [Compound 228, 5-Methyl-2-(1-methyl-1H-imidazol-2-yl)-6-(1-methyl-1H-pyrazol-3-yl)-N-(5-(pyrrolidin-1-yl)pyridin-2-yl)pyrrolo[2,1-f][1,2,4]triazin-4-amine] | D* (85-100% activation) | 25 to 49
< 150 | 1 to 10 | COc1cc(Nc2nc(-c3nccn3C)nn3cc(-c4ccn(C)n4)c(C)c23)ncc1C [Compound 235, N-(4-Methoxy-5-methylpyridin-2-yl)-5-methyl-2-(1-methyl-1H-imidazol-2-yl)-6-(1-methyl-1H-pyrazol-3-yl)pyrrolo[2,1-f][1,2,4]triazin-4-amine] | D* (85-100% activation) | 50 to 84
> 1000 |  | CO[C@H]1C[C@H](Nc2nc(-c3nccn3C)nn3cc(-c4cnccc4C)c(-c4ccccc4)c23)C1 [Compound 218, N-((1r,3r)-3-Methoxycyclobutyl)-2-(1-methyl-1H-imidazol-2-yl)-6-(4-methylpyridin-3-yl)-5-phenylpyrrolo[2,1-f][1,2,4]triazin-4-amine] | D* (85-100% activation) | 1 to 24
< 150 | 1 to 10 | COc1cc(Nc2nc(-c3nccn3C)nn3cc(-c4ccn(C)n4)c(C)c23)ncc1C1CC1 [Compound 238, N-(5-Cyclopropyl-4-methoxypyridin-2-yl)-5-methyl-2-(1-methyl-1H-imidazol-2-yl)-6-(1-methyl-1H-pyrazol-3-yl)pyrrolo[2,1-f][1,2,4]triazin-4-amine] | D* (85-100% activation) | 75 to 100
> 1000 |  | Cc1c(-c2ccn(C)n2)cn2nc(-c3nccn3C)nc(Nc3ccc(C(C)(C)O)cn3)c12 [Compound 241, 2-(6-((5-Methyl-2-(1-methyl-1H-imidazol-2-yl)-6-(1-methyl-1H-pyrazol-3-yl)pyrrolo[2,1-f][1,2,4]triazin-4-yl)amino)pyridin-3-yl)propan-2-ol] | D* (85-100% activation) | 25 to 49
> 1000 |  | Cc1c(-c2ccn(C)n2)cn2nc(-c3nccn3C)nc(N)c12 [Compound 211, 5-Methyl-2-(1-methyl-1H-imidazol-2-yl)-6-(1-methyl-1H-pyrazol-3-yl)pyrrolo[2,1-f][1,2,4]triazin-4-amine] | A (1-25% inhibition) | 50 to 74
< 150 | 1 to 10 | Cc1c(-c2ccn(C)n2)cn2nc(-c3nccn3C)nc(Nc3cc(N4CCOCC4)ccn3)c12 [Compound 222, 5-Methyl-2-(1-methyl-1H-imidazol-2-yl)-6-(1-methyl-1H-pyrazol-3-yl)-N-(4-morpholinopyridin-2-yl)pyrrolo[2,1-f][1,2,4]triazin-4-amine] | D* (85-100% activation) | 50 to 74

Second part, the molecule before the results:

SMILES | IC50 [1, 2] [nM] | IC50 [1, 3] [nM] | % inh of Akt phosphorylation in Panc-1 (Akt phosphorylation) | inhibition (IL6) [%]
COc1cccc(Nc2nc(-c3ccccn3)nn3cc(-c4ccn(C(C)C)n4)c(C)c23)n1 [Compound 14, 6-(1-Isopropyl-1H-pyrazol-3-yl)-N-(6-methoxypyridin-2-yl)-5-methyl-2-(pyridin-2-yl)pyrrolo[2,1-f][1,2,4]triazin-4-amine] | > 1000 |  | 0 (0% inhibition) | 50 to 74
COc1ccnc(Nc2nc(-c3nccn3C)nn3cc(-c4ccn(C)n4)c(C(=O)NCCN(C)C)c23)c1 [Compound 177, N-(2-(Dimethylamino)ethyl)-4-((4-methoxypyridin-2-yl)amino)-2-(1-methyl-1H-imidazol-2-yl)-6-(1-methyl-1H-pyrazol-3-yl)pyrrolo[2,1-f][1,2,4]triazine-5-carboxamide] | > 1000 |  | A* (1-25% activation) | 75 to 100
COc1ccnc(Nc2nc(-c3nccn3C)nn3cc(-c4cccnc4)c(-c4ccccc4)c23)c1 [Compound 196, N-(4-Methoxypyridin-2-yl)-2-(1-methyl-1H-imidazol-2-yl)-5-phenyl-6-(pyridin-3-yl)pyrrolo[2,1-f][1,2,4]triazin-4-amine] | < 150 |  | D* (85-100% activation) | 75 to 100
COC[C@@H]1CC[C@@H]1CNc1nc(-c2ccccn2)nn2cc(-c3ccn(C(C)C)n3)c(C)c12 (racemic) [Compound 11, rac 6-(1-Isopropyl-1H-pyrazol-3-yl)-N-(((1S,2R)-2-(methoxymethyl)cyclobutyl)methyl)-5-methyl-2-(pyridin-2-yl)pyrrolo[2,1-f][1,2,4]triazin-4-amine] | > 1000 |  | 0 (0% inhibition) | 0
Cc1c(-c2ccn(C)n2)cn2nc(-c3nccn3C)nc(O)c12 [Compound 172, 5-Methyl-2-(1-methyl-1H-imidazol-2-yl)-6-(1-methyl-1H-pyrazol-3-yl)pyrrolo[2,1-f][1,2,4]triazin-4-ol] | > 1000 |  | B* (26-49% activation) | 1 to 24
COc1cc(Nc2nc(-c3ccccn3)nn3cc(-c4ccn(C(C)C)n4)c(C)c23)ncn1 [Compound 13, 6-(1-Isopropyl-1H-pyrazol-3-yl)-N-(6-methoxypyrimidin-4-yl)-5-methyl-2-(pyridin-2-yl)pyrrolo[2,1-f][1,2,4]triazin-4-amine] | 150 to 500 |  | 0 (0% inhibition) | 75 to 100
CO[C@H]1C[C@@H](Nc2nc(-c3nccn3C)nn3cc(-c4cccnc4)c(-c4ccccc4)c23)C1 [Compound 191, N-((1s,3s)-3-Methoxycyclobutyl)-2-(1-methyl-1H-imidazol-2-yl)-5-phenyl-6-(pyridin-3-yl)pyrrolo[2,1-f][1,2,4]triazin-4-amine] | > 1000 |  | D* (85-100% activation) | 50 to 74
COc1ccnc(Nc2nc(-c3nccn3C)nn3cc(-c4ccn(C)n4)c(C(=O)NCC(F)(F)F)c23)c1 [Compound 174, 4-((4-Methoxypyridin-2-yl)amino)-2-(1-methyl-1H-imidazol-2-yl)-6-(1-methyl-1H-pyrazol-3-yl)-N-(2,2,2-trifluoro-ethyl)pyrrolo[2,1-f][1,2,4]triazine-5-carboxamide] | 150 to 500 |  | D* (85-100% activation) | 1 to 24
COCCNC(=O)c1c(-c2ccn(C)n2)cn2nc(-c3nccn3C)nc(Nc3cc(OC)ccn3)c12 [Compound 176, N-(2-Methoxyethyl)-4-((4-methoxypyridin-2-yl)amino)-2-(1-methyl-1H-imidazol-2-yl)-6-(1-methyl-1H-pyrazol-3-yl)pyrrolo[2,1-f][1,2,4]triazine-5-carboxamide] | 510 to 1000 |  | D* (85-100% activation) | 75 to 100
